Results as given in patent US4302540A, “Process of producing optically active cephalosporin analogs by enzyme selective deacylation” (Kyowa Hakko Kogyo Co., Ltd., priority 1979, dated 1981).
≈ marks a conversion by molar mass, not a printed value. Like-named read-outs stand apart in the source and are kept apart here.

Legend:
Assay in all cases: Antimicrobial activity, Heart Infusion Agar Dilution Method (pH 7.2)
Format in all cases: cell-based
Escherichia coli Juhl = tested on: Escherichia coli Juhl
[1] = tested on: Staphylococcus aureus Smith
Text: (§1) Antimicrobial activities of the compound obtained in Reference Example 9 are as follows. Heart Infusion Agar Dilution Method (pH 7.2) is used.

Pseudomonas putida 264 = tested on: Pseudomonas putida 264
Text: as §1

[2] = tested on: Escherichia coli GN2411-5
Text: as §1

Serratia marcescens T-55 = conditions: T55
Text: as §1

[3] = tested on: Pseudomonas aeruginosa 145
Text: as §1

Proteus rettgeri KY 4289 = conditions: Providencia rettgeri, KY4289
Text: as §1

[4] = tested on: Staphylococcus epidermidis
Text: as §1

Proteus morganii KY 4298 = tested on: Proteus morganii KY 4298
Text: as §1

Proteus vulgaris 6897 = tested on: Proteus vulgaris 6897
Text: as §1

Escherichia coli NIHJC-2 = conditions: NIHJC2
[5] = tested on: Klebsiella pneumoniae Y-60; conditions: Y60
Proteus mirabilis 1287 = tested on: Proteus mirabilis 1287
[6] = tested on: Klebsiella pneumoniae 8045
Serratia marcescens T-26 = tested on: Serratia marcescens T-26
[7] = tested on: Pseudomonas aeruginosa #1
Text: as §1

[8] = tested on: Staphylococcus aureus 209-P
Text: as §1

[9] = Morganella morganii, KY4298, read-out: MIC

SMILES | MIC (Escherichia coli Juhl) [µg/mL] | MIC [1] [µg/mL] | MIC (Pseudomonas putida 264; read-out: MIC) [µg/mL] | MIC [2] [µg/mL] | MIC (Serratia marcescens T-55) [µg/mL] | MIC ([3]; read-out: MIC) [µg/mL] | MIC (Proteus rettgeri KY 4289) [µg/mL] | MIC ([4]; read-out: MIC) [µg/mL] | MIC (Proteus morganii KY 4298; [9]) [µg/mL] | MIC (Proteus vulgaris 6897) [µg/mL] | MIC (Escherichia coli NIHJC-2) [µg/mL] | MIC [5] [µg/mL] | MIC (Proteus mirabilis 1287) [µg/mL] | MIC [6] [µg/mL] | also measured
CO/N=C(\C(=O)N[C@@H]1C(=O)N2C(C(=O)O)=C[C@@H](O)C[C@H]12)c1csc(N)n1 (relative stereo) [B, (±)-cis-7β-[2-(2-amino-4-thiazolyl)-2-syn-methoxyiminoacetamido]-4α-hydroxy-1-azabicyclo[4,2,0]oct-2-en-8-on-2-carboxylic acid] | 0.05 (≈ 0.131 µM) | 25 (≈ 65.6 µM) | 0.02 (≈ 0.0524 µM) | 0.02 (≈ 0.0524 µM) | 0.02 (≈ 0.0524 µM) | 12.5 (≈ 32.8 µM) | < 0.01 | 50 (≈ 131 µM) | 0.05 (≈ 0.131 µM) | 0.1 (≈ 0.262 µM) | 0.05 (≈ 0.131 µM) | 0.02 (≈ 0.0524 µM) | 0.1 (≈ 0.262 µM) | 0.02 (≈ 0.0524 µM) | 
N[C@@H](C(=O)NC1C(=O)N2C(C(=O)O)=CC(O)CC12)c1ccccc1 (stereo in doubt) [C, cis-7β-[(R)-2-phenylglycinamido]-4α-hydroxy-1-azabicyclo[4,2,0]oct-2-en-8-on-2-carboxylic acid] |  |  |  |  |  |  |  |  |  |  |  |  |  |  | MIC (Serratia marcescens T-26): 100 µg/mL (≈ 302 µM); MIC [7]: > 100 µg/mL; MIC (Pseudomonas putida 264): 12.5 µg/mL (≈ 37.7 µM); MIC [3]: > 100 µg/mL; MIC [4]: 12.5 µg/mL (≈ 37.7 µM); MIC (Proteus morganii KY 4298): 12.5 µg/mL (≈ 37.7 µM)
CO/N=C(\C(=O)N[C@@H]1C(=O)N2C(C(=O)O)=C[C@@H](O)C[C@H]12)c1csc(N)n1 [A, (4S,6R,7S)-7-[2-(2-amino-4-thiazolyl)-2-syn-methoxyiminoacetamido]-4-hydroxy-1-azabicyclo[4,2,0]oct-2-en-8-on-2-carboxylic acid] | ≤ 0.01 | 12.5 (≈ 32.8 µM) | 0.02 (≈ 0.0524 µM) | ≤ 0.01 | 0.05 (≈ 0.131 µM) | 6.25 (≈ 16.4 µM) | ≤ 0.01 | 25 (≈ 65.6 µM) | ≤ 0.01 | ≤ 0.01 | 0.02 (≈ 0.0524 µM) | ≤ 0.01 | 0.05 (≈ 0.131 µM) | ≤ 0.01 | 
Cc1nnc(SCC2=C(C(=O)O)N3C(=O)[C@@H](NC(=O)Cn4cnnn4)[C@H]3SC2)s1 [Cefazolin, reference compound] |  | 0.78 (≈ 1.72 µM) | > 100 | 0.78 (≈ 1.72 µM) | > 100 | > 100 | 25 (≈ 55 µM) | 0.78 (≈ 1.72 µM) | > 100 | 25 (≈ 55 µM) |  | 3.12 (≈ 6.86 µM) | 12.5 (≈ 27.5 µM) |  | MIC (Serratia marcescens T-26; T26, read-out: MIC): > 100 µg/mL; MIC ([7]; read-out: MIC): > 100 µg/mL; MIC [8]: 0.02 µg/mL (≈ 0.044 µM)
